Reference: patent US8293731B2, “HIV integrase inhibitors” (Merck Sharp + Dohme Corp., priority 2005, dated 2012)

Tested on: HIV
Test: Assay for inhibition of HIV replication (spread assay): acute HIV infection of T-lymphoid cells
Type: cell-based
Details: Human immunodeficiency virus 1, 'less than about'
Procedure: Assays for the inhibition of acute HIV infection of T-lymphoid cells were conducted in accordance with Vacca, J. P. et al., Proc. Natl. Acad. Set USA 1994, 91: 4096. […] For example, the compounds of Examples 1 to 64 were tested in this assay and found to have IC95 values of less than about 10 micromolar.

How did the IC95 turn out when `CN1CC(O)CCn2c(c3c(c(O)c2=O)C(=O)N(Cc2ccc(F)c(Cl)c2)CC3)C1=O` (single isomer, unassigned) [Example 23, 11-(3-Chloro-4-fluorobenzyl)-4,9-dihydroxy-2-methyl-3,4,5,6,12,13-hexahydro-2H[1,4]diazocino[2,1-a]-2,6-naphthyridine-1,8,10(11H)-trione] was run?
The IC95 was under 10 µM.

How did the IC95 turn out when `CNC(=O)CN1CCCCn2c(c3c(c(O)c2=O)C(=O)N(Cc2ccc(F)c(Cl)c2)CC3)C1=O` [Example 14, 2-[11-(3-Chloro-4-fluorobenzyl)-9-hydroxy-1,8,10-trioxo-1,3,4,5,6,8,10,11,12,13-deca-hydro-2H-[1,4]diazocino[2,1-a]-2,6-naphthyridin-2-yl]-N-methylacetamide] was run?
Its IC95 is under 10 µM.

For `O=C1OC(CO)Cn2c1c1c(c(O)c2=O)C(=O)N(Cc2ccc(F)c(Cl)c2)CC1` (stereo not drawn) [Example 64, 9-(3-Chloro-4-fluorobenzyl)-7-hydroxy-3-(hydroxymethyl)-3,4,10,11-tetrahydro[1,4]oxazino[3,4-a]-2,6-naphthyridine-1,6,8(9H)trione], which IC95 is on record?
The IC95 was under 10 µM.
